ChEMBL document CHEMBL3045068, “Effect of methomyl and oxamyl soil applications on early control of nematodes and insects” (Pest Manag Sci, 2011)
In brackets after ≈: the same amount, converted by molar mass.

What was measured:
Phaseolus lunatus [1] = assay: Phytotoxicity in Phaseolus lunatus (lima bean) root assessed as root dry weight at 1.12 kg ai/ha applied to soil under green house conditions (reference value: 0.36 +/- 0.071 g); assay type: organism-based; settings: in vivo, other
Gossypium hirsutum [2] = assay: Phytotoxicity in Gossypium hirsutum (cotton) assessed as concentration required to cause foliar edge burn applied through foliar spray after 4 weeks; assay type: organism-based; settings: in vivo, other, 672 h
Gossypium hirsutum [3] = assay: Phytotoxicity in Gossypium hirsutum (cotton) assessed as concentration required to cause foliar edge burn applied to soil after 4 weeks; assay type: organism-based; settings: in vivo, other, 672 h
Trichoplusia ni = assay: Insecticidal activity against Trichoplusia ni (cabbage looper) infested cabbage assessed as mortality applied to soil after 72 hr; assay type: functional
Spodoptera exigua = assay: Insecticidal activity against Spodoptera exigua infested tomato assessed as mortality applied to soil after 72 hr; assay type: functional
Aphis gossypii = assay: Insecticidal activity against Aphis gossypii (cotton aphid) infested cotton assessed as mortality applied through foliar spray after 5 days; assay type: functional
Meloidogyne incognita [4] = assay: Nematicidal activity against second juvenile stage of Meloidogyne incognita (root-knot nematode) infected lima bean plant assessed as reduction in root gall index at 4 kg ai/ha applied to soil measured up to 14 days post planting under green house conditions (reference value: 7 +/- 0.27%); assay type: functional
Meloidogyne incognita [5] = assay: Nematicidal activity against second juvenile stage of Meloidogyne incognita (root-knot nematode) infected lima bean plant assessed as root dry weight at 2 kg ai/ha applied to soil measured up to 7 days post planting under green house conditions (reference value: 0.5 +/- 0.052 g); assay type: functional
Meloidogyne incognita [6] = assay: Nematicidal activity against second juvenile stage of Meloidogyne incognita (root-knot nematode) infected pea plant assessed as root fresh weight at 4 kg ai/ha applied to soil measured up to 14 days post planting under green house conditions (reference value: 4.3 +/- 0.56 g); assay type: functional
Meloidogyne incognita [7] = assay: Nematicidal activity against second juvenile stage of Meloidogyne incognita (root-knot nematode) infected pea plant assessed as plant fresh weight at 2 kg ai/ha applied to soil measured up to 7 days post planting under green house conditions (reference value: 4.3 +/- 0.56 g); assay type: functional
Meloidogyne incognita [8] = assay: Nematicidal activity against second juvenile stage of Meloidogyne incognita (root-knot nematode) infected pea plant assessed as root dry weight at 4 kg ai/ha applied to soil measured up to 7 days post planting under green house conditions (reference value: 0.25 +/- 0.041 g); assay type: functional
Meloidogyne incognita [9] = assay: Nematicidal activity against second juvenile stage of Meloidogyne incognita (root-knot nematode) infected pea plant assessed as root dry weight at 4 kg ai/ha applied to soil measured up to 14 days post planting under green house conditions (reference value: 0.25 +/- 0.041 g); assay type: functional
Meloidogyne incognita [10] = assay: Nematicidal activity against second juvenile stage of Meloidogyne incognita (root-knot nematode) infected pea plant assessed as root dry weight at 3 kg ai/ha applied to soil measured up to 14 days post planting under green house conditions (reference value: 0.25 +/- 0.041 g); assay type: functional
Meloidogyne incognita [11] = assay: Nematicidal activity against second juvenile stage of Meloidogyne incognita (root-knot nematode) infected pea plant assessed as emergence at 2 kg ai/ha applied to soil measured up to 7 days post planting under green house conditions (reference value: 75 +/- 13%); assay type: functional
Meloidogyne incognita [12] = assay: Nematicidal activity against second juvenile stage of Meloidogyne incognita (root-knot nematode) infected pea plant assessed as reduction in root gall index at 4 kg ai/ha applied to soil measured up to 14 days post planting under green house conditions (reference value: 9.7 +/- 0.30%); assay type: functional
Meloidogyne incognita [13] = assay: Nematicidal activity against second juvenile stage of Meloidogyne incognita (root-knot nematode) infected pea plant assessed as reduction in root gall index at 3 kg ai/ha applied to soil measured up to 14 days post planting under green house conditions (reference value: 9.7 +/- 0.30%); assay type: functional
Phaseolus lunatus [14] = assay: Phytotoxicity in Phaseolus lunatus (lima bean) plant assessed as emergence at 0.56 kg ai/ha under green house conditions applied to soil (reference value: 70 +/- 16%); assay type: organism-based; settings: in vivo, other
Pisum sativum [15] = assay: Phytotoxicity in Pisum sativum (pea) assessed as root dry weight at 2 kg ai/ha applied to soil measured up to 7 days post planting at 19 degC (reference value: 2 +/- 0.21 g); assay type: organism-based; settings: lathyrus oleraceus, in vivo, other, 168 h
Pisum sativum [16] = assay: Phytotoxicity in Pisum sativum (pea) assessed as root dry weight at 4 kg ai/ha applied to soil measured up to 7 days post planting at 27 degC under green house conditions (reference value: 0.33 +/- 0.075 g); assay type: organism-based; settings: lathyrus oleraceus, in vivo, other, 168 h
Pisum sativum [17] = assay: Phytotoxicity in Pisum sativum (pea) assessed as root dry weight at 3 kg ai/ha applied to soil measured up to 14 days post planting at 27 degC under green house conditions (reference value: 0.33 +/- 0.075 g); assay type: organism-based; settings: lathyrus oleraceus, in vivo, other, 336 h
Pisum sativum [18] = assay: Phytotoxicity in Pisum sativum (pea) assessed as root dry weight at 2 kg ai/ha applied to soil measured up to 7 days post planting at 27 degC under green house conditions (reference value: 0.33 +/- 0.075 g); assay type: organism-based; settings: lathyrus oleraceus, in vivo, other, 168 h
Pisum sativum [19] = assay: Phytotoxicity in Pisum sativum (pea) assessed as plant fresh weight at 3 kg ai/ha applied to soil measured up to 7 days post planting at 19 degC (reference value: 9.4 +/- 0.54 g); assay type: organism-based; settings: lathyrus oleraceus, in vivo, other, 168 h
Pisum sativum [20] = assay: Phytotoxicity in Pisum sativum (pea) assessed as plant fresh weight at 3 kg ai/ha applied to soil measured up to 7 days post planting at 27 degC under green house conditions (reference value: 3.9 +/- 0.83 g); assay type: organism-based; settings: lathyrus oleraceus, in vivo, other, 168 h
Pisum sativum [21] = assay: Phytotoxicity in Pisum sativum (pea) assessed as emergence at 2 kg ai/ha applied to soil measured up to 7 days post planting at 27 degC under green house conditions (reference value: 70 +/- 3.3%); assay type: organism-based; settings: lathyrus oleraceus, in vivo, other, 168 h
Meloidogyne incognita [22] = assay: Nematicidal activity against second juvenile stage of Meloidogyne incognita (root-knot nematode) infected lima bean plant assessed as root dry weight at 4 kg ai/ha applied to soil measured up to 14 days post planting under green house conditions (reference value: 0.5 +/- 0.052 g); assay type: functional
Meloidogyne incognita [23] = assay: Nematicidal activity against second juvenile stage of Meloidogyne incognita (root-knot nematode) infected lima bean plant assessed as reduction in root gall index at 3 kg ai/ha applied to soil measured up to 7 days post planting under green house conditions (reference value: 7 +/- 0.27%); assay type: functional
Meloidogyne incognita [24] = assay: Nematicidal activity against second juvenile stage of Meloidogyne incognita (root-knot nematode) infected lima bean plant assessed as reduction in root gall index at 2 kg ai/ha applied to soil measured during planting under green house conditions (reference value: 7 +/- 0.27%); assay type: functional
Meloidogyne incognita [25] = assay: Nematicidal activity against second juvenile stage of Meloidogyne incognita (root-knot nematode) infected lima bean plant assessed as emergence at 3 kg ai/ha applied to soil measured up to 7 days post planting under green house conditions (reference value: 83 +/- 5%); assay type: functional
Meloidogyne incognita [26] = assay: Nematicidal activity against second juvenile stage of Meloidogyne incognita (root-knot nematode) infected lima bean plant assessed as emergence at 1 kg ai/ha applied to soil measured during planting under green house conditions (reference value: 83 +/- 5%); assay type: functional

CNC(=O)ON=C(C)SC [METHOMYL]
Activity (Phaseolus lunatus [1]): 0.35 g
Activity (Gossypium hirsutum [2]): 500 µg/mL
Activity (Gossypium hirsutum [3]): 100 µg/mL
LC90 (Trichoplusia ni): 547 mg/L (≈ 3370 µM)
LC50 (Trichoplusia ni; Trichoplusia ni, soil, 72 h): 100 mg/L (≈ 616 µM)
LC90 (Spodoptera exigua): 30 mg/L (≈ 185 µM)
LC50 (Spodoptera exigua; Spodoptera exigua, soil, 72 h): 18 mg/L (≈ 111 µM)
LC90 (Aphis gossypii): 54 mg/L (≈ 333 µM)
LC50 (Aphis gossypii; Aphis gossypii, foliar, 120 h): 25 mg/L (≈ 154 µM)
Root_galling_index (Meloidogyne incognita [4]): 0%
Activity (Meloidogyne incognita [5]): 0.38 g
Activity (Meloidogyne incognita [6]): 5.5 g
Activity (Meloidogyne incognita [7]): 7.1 g
Activity (Meloidogyne incognita [8]): 0.28 g
Activity (Meloidogyne incognita [9]): 0.31 g
Activity (Meloidogyne incognita [10]): 0.25 g
Activity (Meloidogyne incognita [11]): 50%
Root_galling_index (Meloidogyne incognita [12]): 0%
Root_galling_index (Meloidogyne incognita [13]): 0%
Activity (Phaseolus lunatus [14]): 80%
Activity (Pisum sativum [15]): 3.1 g
Activity (Pisum sativum [16]): 0.28 g
Activity (Pisum sativum [17]): 0.27 g
Activity (Pisum sativum [18]): 0.16 g
Activity (Pisum sativum [19]): 9.4 g
Activity (Pisum sativum [20]): 3.3 g
Activity (Pisum sativum [21]): 50%
Activity (Meloidogyne incognita [22]): 0.27 g
Root_galling_index (Meloidogyne incognita [23]): 0%
Root_galling_index (Meloidogyne incognita [24]): 0%
Activity (Meloidogyne incognita [25]): 83%
Activity (Meloidogyne incognita [26]): 100%
